Measurements reported in patent publication US10232020B2, “Incretin-insulin conjugates” (priority 2014, dated 2019).
Non-standard residues stand in square brackets, D forms with d. No end group written: not given here. Aib = CC(C)(N)C(=O)O

Assays:
[1] = molecular target: insulin subtype A receptor (Homo sapiens, UniProt P06213); assay: In vitro activity at insulin subtype A receptor; format: cell-based; conditions: FIG. 1A
insulin receptor (IR-B) = molecular target: T1, insulin receptor (IR-B) (Homo sapiens, UniProt P06213); assay: In vitro activity at insulin B receptor (IR-B); format: cell-based; conditions: FIG. 1B
T1 construct: expressed in transfected cells
Procedure: Color development was stopped 5 min later by adding 0.05 ml 1 N HCl. Absorbance at 450 nm was measured on Titertek Multiscan MCC340 (ThermoFisher, Pittsburgh, Pa.). […] Structures associated with the abbreviated lipidated groups designated in Table 4 are as follows: […]

normal mice = assay: Blood glucose after single administration to normal mice; format: in vivo; conditions: 50 nmoles/kg, FIG. 8
Procedure: Six- to eight-week-old male C57BL/6 mice were maintained at 23° C., constant humidity, and a 12-h light-dark cycle. The acute in vivo effects of select peptides were evaluated by subcutaneously injecting peptides solubilized in physiologically buffered saline or a vehicle control to normal or diabetic mice. Blood glucose was measured at various time points through the course of a 24 hr period following administration of the peptides. Each group of mice contained 8 animals per group. The average body weight was ˜25 g. Mice were made diabetic by administration of streptozotocin.

[2] = Dose titration on food intake and blood glucose (FIGS. 20-25); format: in vivo
[3] = system: GPL-1 receptor knock out mice; assay: Glucose tolerance test and food intake in GLP-1 receptor knock out mice; format: in vivo; conditions: GLP-1 knock out mice; 3 nmol/kg; FIG. 28
From the text: FIG. 26 is a graph of a glucose tolerance test conducted on wild type mice (solid lines) and on GPL-1 receptor knock out mice (dashed lines).

Which results are given for “GLP-DP8: GLP-1/insulin fusion, SEQ ID NO: 700; GLP-1 agonist peptide fused to the N-terminus of a single chain insulin analog (HAEGTFTSDVSSYLEEQAAREFIAWLVRGRG; GLP-1 analog)”?
potency at the A receptor [1]: about 2.07 nanomoles; potency at the insulin B receptor (insulin receptor (IR-B)): about 9.9 nanomoles

Which blood glucose levels (normal mice) does the source give for “IUB-48: GLP-1 agonist, HXEGTFTSDVSSYLEEQAAKEFIAWLVKGGPSSGAPPPS (SEQ ID NO: 1932) (H[Aib]EGTFTSDVSSYLEEQAAKEFIAWLVKGGPSSGAPPPS)” here?
Its blood glucose levels is “about 60 mg/dL”.

What does the source list for “CIU-093: XEGTFTSDUSIYLDKQAAXEFVNWLLAGGPSSGAPPPS (SEQ ID NO: 1996); C(S-S)—CH2CH2CH2-B^1 Insulin”?
food intake ([2]; FIG. 22): does not suppress food intake; blood glucose ([2]; FIG. 25): a much higher dosage is required to get the same glucose lowering; food intake [3]: no reduction in food intake
